From ChEMBL document CHEMBL4811257, “Dipeptide inhibitors of the prostate specific membrane antigen (PSMA): A comparison of urea and thiourea derivatives” (Bioorg Med Chem Lett, 2021) come the findings set out here.

Broadly, the IC50 is the midpoint of a concentration-inhibition curve. Lower therefore signals greater potency.

The nature of series [1]: Stability of the compound in presence of GCPII/PSMA expressing human DU-145 cells by 1H-NMR analysis. Format: ADME, cell-based.
Series [2] is described as follows: Stability of the compound in PBS at pH 7 measured for 48 hrs by 1H-NMR analysis. Type of series: physicochemical. The settings on record: buffer, pH 7, 48 h.
In series [3] the target is Glutamate carboxypeptidase 2 (Homo sapiens, UniProt Q04609). In words: Inhibition of GCPII (unknown origin) expressed in DU-145 cells after 1 hr by [67Ga]Ga-DOTA-PSMA competitive binding assay with gamma counting.
Chain of Glutamate carboxypeptidase 2 (Q04609 whole entry): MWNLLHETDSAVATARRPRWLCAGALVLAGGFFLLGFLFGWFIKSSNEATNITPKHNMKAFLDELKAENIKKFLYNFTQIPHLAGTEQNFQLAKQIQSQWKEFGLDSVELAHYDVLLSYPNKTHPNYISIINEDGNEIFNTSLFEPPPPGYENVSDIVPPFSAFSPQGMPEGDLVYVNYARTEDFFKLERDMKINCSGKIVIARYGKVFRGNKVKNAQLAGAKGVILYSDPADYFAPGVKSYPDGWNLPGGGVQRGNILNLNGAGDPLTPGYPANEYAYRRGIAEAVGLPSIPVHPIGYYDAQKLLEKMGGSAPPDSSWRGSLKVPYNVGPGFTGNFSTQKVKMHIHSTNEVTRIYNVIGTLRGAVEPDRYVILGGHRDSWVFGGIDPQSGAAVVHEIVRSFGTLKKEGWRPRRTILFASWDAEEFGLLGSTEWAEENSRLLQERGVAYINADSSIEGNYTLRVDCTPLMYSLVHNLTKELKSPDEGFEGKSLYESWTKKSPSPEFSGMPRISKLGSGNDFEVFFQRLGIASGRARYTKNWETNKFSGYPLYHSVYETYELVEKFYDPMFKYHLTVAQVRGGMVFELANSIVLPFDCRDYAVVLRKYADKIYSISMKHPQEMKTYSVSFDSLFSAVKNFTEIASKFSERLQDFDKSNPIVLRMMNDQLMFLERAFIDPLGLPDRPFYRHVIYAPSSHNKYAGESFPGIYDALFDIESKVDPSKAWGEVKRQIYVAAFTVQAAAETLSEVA

`O=C(O)CC[C@H](NC(=O)N[C@@H](CCC(=O)O)C(=O)O)C(=O)O`: the Stabilty result in series [1] and in series [2] was “Stable” in each case. In addition, the IC50 in series [3] stood at 1.34 µM.
Turning to `O=C(O)CC[C@H](NC(=S)N[C@@H](CCC(=O)O)C(=O)O)C(=O)O`, the Stabilty result in series [1] and in series [2] was “Stable” in each case. The IC50 in series [3] was determined as 135 µM.
